According to patent US20140051679A1, “KINASE INHIBITORS AND METHOD OF TREATING CANCER WITH SAME” (UNIVERISTY HEALTH NETWORKS, priority 2011, published 2014):

Assays:
[1] = tested on: PA-1 ovarian cancer cells; assay: Cell growth inhibition, Sulforhodamine B assay, PA-1; type: cell-based; conditions: 120 h, 5 days culture, SRB assay, read-out: Cell Line GI50 Range PA-1
Method: Breast cancer cells (MDA-MB-231, MDA-MB-468), colon cancer cells (HCT116, HT29) and ovarian cancer cells (PA-1, OVCAR-3) were seeded (1000 to 4000 in 80 μl per well depending on the cell growth rate) into 96 well plates 24 hours before compound overlay. Compounds were prepared as 10 mM stock solutions in 100% DMSO which were diluted with DMEM (Dulbecco's Modified Eagle's Medium) cell growth Medium (Invitrogen, Burlington, ON, Canada) containing 10% FBS (Fetal Bovine Serum) to concentrations ranging from 50 nM to 250 μM. Aliquots (20 μl) from each concentration were overlaid to 80 μl of the pre-seeded cells in the 96 well plates to make final concentrations of 10 nM to 50 μM. The cells were cultured for 5 days before the Sulforhodamine B assay (SRB) was performed to determine the compound's cell growth inhibition activity.
Sulforhodamine B (purchased from Sigma, Oakville, ON, Canada) is a water-soluble dye that binds to the basic amino acids of the cellular proteins. Thus, colorimetric measurement of the bound dye provides an estimate of the total protein mass that is related to the cell number. the cells are fixed in situ by gently aspirating off the culture media and adding 50 μl ice cold 10% Trichloroacetic Acid (TCA) per well and incubate at 4° C. for 30-60 min, The plates are washed with water five times and allowed to air dry for 5 min. Addition of 50 μl 0.4% (w/v) SRB solution in 1% (v/v) acetic acid to each well and incubatation for 30 min at RT completes the staining reaction. Following staining, plates are washed four times with 1% acetic acid to remove unbound dye and then allowed to air dry for 5 min. The stain is solubilized with 100 μl of 10 mM Tris pH 10.5 per well. Absorbance is read at 570 nm.
The percentage (%) of relative growth inhibition was calculated by comparing to DMSO treated only cells (100%). […] The GI50 was calculated using GraphPad PRISM software (GraphPad Software, Inc., San Diego, Calif., USA).

[2] = tested on: MDA-MB-468 breast cancer cells; assay: Cell growth inhibition, Sulforhodamine B assay, MDA-MB-468; type: cell-based; conditions: Homo sapiens, 120 h, 5 days culture, SRB assay, read-out: Cell Line GI50 Range MDA-MB-468
human TTK = target: T1, human TTK (Homo sapiens, UniProt P33981); assay: TTK inhibition assay (indirect ELISA); type: biochemical; conditions: GST-TTK 0.68 nM, 16 μM ATP; read-out: IC50 Ranges TTK
T1 construct: amino terminal GST fusion of full length human TTK; purchased Invitrogen
T1 sequence (P33981 1-857): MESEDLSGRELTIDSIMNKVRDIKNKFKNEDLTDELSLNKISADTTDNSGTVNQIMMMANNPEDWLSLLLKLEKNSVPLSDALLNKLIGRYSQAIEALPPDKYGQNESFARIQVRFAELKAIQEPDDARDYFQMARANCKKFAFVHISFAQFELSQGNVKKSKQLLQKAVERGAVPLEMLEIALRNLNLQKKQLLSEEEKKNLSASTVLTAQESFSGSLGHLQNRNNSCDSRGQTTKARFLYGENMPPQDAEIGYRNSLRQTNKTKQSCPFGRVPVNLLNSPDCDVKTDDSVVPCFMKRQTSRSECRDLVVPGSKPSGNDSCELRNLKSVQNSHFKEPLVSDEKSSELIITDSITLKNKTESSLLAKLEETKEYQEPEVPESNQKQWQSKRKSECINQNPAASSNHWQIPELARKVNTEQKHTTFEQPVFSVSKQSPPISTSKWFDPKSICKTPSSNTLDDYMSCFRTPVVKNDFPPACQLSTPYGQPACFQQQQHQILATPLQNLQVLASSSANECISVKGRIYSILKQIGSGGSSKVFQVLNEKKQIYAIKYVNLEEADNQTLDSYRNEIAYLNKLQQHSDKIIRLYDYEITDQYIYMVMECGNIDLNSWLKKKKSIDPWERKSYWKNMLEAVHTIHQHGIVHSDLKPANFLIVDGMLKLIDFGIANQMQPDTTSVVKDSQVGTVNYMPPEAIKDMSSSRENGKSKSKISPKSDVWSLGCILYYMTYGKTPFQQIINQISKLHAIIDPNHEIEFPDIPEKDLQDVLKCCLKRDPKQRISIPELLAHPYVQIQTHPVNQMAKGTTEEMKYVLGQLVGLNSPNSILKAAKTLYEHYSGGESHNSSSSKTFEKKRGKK

human PLK4 = target: T2, human PLK4 (Homo sapiens, UniProt O00444); assay: PLK4 inhibition assay (indirect ELISA); type: biochemical; conditions: GST-PLK4 4 nM, 15 μM ATP; read-out: IC50 Ranges PLK4
T2 construct: amino terminal GST fusion of residues 1-391 of human PLK4; made in house; host or cells: E. coli
T2 sequence (O00444 1-391): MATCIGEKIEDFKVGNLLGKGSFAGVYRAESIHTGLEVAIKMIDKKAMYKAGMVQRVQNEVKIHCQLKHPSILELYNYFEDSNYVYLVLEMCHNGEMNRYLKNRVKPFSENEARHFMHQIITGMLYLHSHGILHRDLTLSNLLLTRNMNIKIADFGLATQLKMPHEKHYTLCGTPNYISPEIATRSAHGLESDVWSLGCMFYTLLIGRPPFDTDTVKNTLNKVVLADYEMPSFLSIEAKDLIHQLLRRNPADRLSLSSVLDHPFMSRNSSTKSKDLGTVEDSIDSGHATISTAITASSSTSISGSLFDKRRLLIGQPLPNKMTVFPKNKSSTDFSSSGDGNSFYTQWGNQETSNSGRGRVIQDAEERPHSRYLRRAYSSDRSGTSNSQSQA
How it was run: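 Compounds were tested either at a single 10 μM dose or across 10-point titrations (typically 0.5 to 0.001 μM), preincubated 15 min with 4 nM GST-PLK4 (human 1-391, dephosphorylated) before 15 μM ATP was added. MBP substrate phosphorylation over 30 min, pH 7.5 HEPES/MgCl2 buffer, read by HRP/TMB ELISA (450 nm). % inhibition vs. high-activity control; IC50 by logistic fit.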

[3] = tested on: HCT116 colon cancer cells; assay: Cell growth inhibition, Sulforhodamine B assay, HCT116; type: cell-based; conditions: Homo sapiens, HCT-116, 120 h, 5 days culture, SRB assay, read-out: Cell Line GI50 Range HCT116
Aurora B = target: T3, Aurora B (Homo sapiens, UniProt Q96GD4); assay: Aurora B inhibition assay (Z-Lyte); type: biochemical; conditions: 28 nM Aurora B, 128 μM ATP; read-out: IC50 Ranges Aurora B
T3 construct: purchased Invitrogen PV3970
T3 sequence (Q96GD4 whole entry): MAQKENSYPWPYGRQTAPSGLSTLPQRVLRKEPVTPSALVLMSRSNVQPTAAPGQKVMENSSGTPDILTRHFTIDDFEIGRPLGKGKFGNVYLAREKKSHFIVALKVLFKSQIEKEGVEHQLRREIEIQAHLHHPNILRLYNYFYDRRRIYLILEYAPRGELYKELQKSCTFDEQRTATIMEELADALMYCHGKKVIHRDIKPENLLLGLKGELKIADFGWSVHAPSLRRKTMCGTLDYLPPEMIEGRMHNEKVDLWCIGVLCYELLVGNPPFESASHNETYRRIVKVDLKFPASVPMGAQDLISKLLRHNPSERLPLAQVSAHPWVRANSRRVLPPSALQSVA
Method: Aurora B inhibition was determined using the Z-Lyte assay kit from Invitrogen. The assay was performed using the recommended manufacturer's instructions with 128 μM ATP and 28 nM Aurora B (Invitrogen cat #PV3970). The % inhibition values were determined according to the manufacturer's directions and IC50 values were obtained using a non-linear 4 point logistic curve fit (XLfit4, IDBS)

HT29 colon cancer cells = assay: Cell growth inhibition, Sulforhodamine B assay, HT29; type: cell-based; conditions: Homo sapiens, HT-29, 120 h, 5 days culture, SRB assay, read-out: Cell Line GI50 Range HT29

O=C(NC(c1ccccc1)C1CC1)c1ccc2[nH]nc(-c3ccc(N[C@H]4CC[C@H](O)CC4)cc3)c2c1 (single isomer, unassigned) [Example A106, rel-N-(cyclopropyl(phenyl)methyl)-3-(4-(((1r,4r)-4-hydroxycyclohexyl)amino)phenyl)-1H-indazole-5-carboxamide]
≤ 5 µM: GI50 [1] | GI50 [2] | IC50 (human TTK) | IC50 (human PLK4) | GI50 [3] | IC50 (Aurora B) | GI50 (HT29 colon cancer cells)

O=C(Nc1ccc2[nH]nc(-c3ccc(N4CCOCC4)cc3)c2c1)C(c1cccs1)N1CCCC1 (stereo not shown) [Example A82, N-(3-(4-morpholinophenyl)-1H-indazol-5-yl)-2-(pyrrolidin-1-yl)-2-(thiophen-2-yl)acetamide]
≤ 5 µM: GI50 [1] | GI50 [2] | IC50 (human TTK) | IC50 (human PLK4) | GI50 [3] | IC50 (Aurora B) | GI50 (HT29 colon cancer cells)

O=C(Nc1ccc2[nH]nc(-c3ccc(N4CCC(O)CC4)cc3)c2c1)C(c1ccsc1)N1CCCCC1 (stereo not shown) [Example A83, N-(3-(4-(4-hydroxypiperidin-1-yl)phenyl)-1H-indazol-5-yl)-2-(piperidin-1-yl)-2-(thiophen-3-yl)acetamide]
≤ 5 µM: GI50 [1] | GI50 [2] | IC50 (human TTK) | IC50 (human PLK4) | GI50 [3] | IC50 (Aurora B) | GI50 (HT29 colon cancer cells)

O=C(NC(c1ccccc1)C1CC1)c1ccc2[nH]nc(-c3ccc(N4CCC(O)CC4)cc3)c2c1 (stereo not shown) [Example A84, N-(cyclopropyl(phenyl)methyl)-3-(4-(4-hydroxypiperidin-1-yl)phenyl)-1H-indazole-5-carboxamide]
≤ 5 µM: GI50 [1] | GI50 [2] | IC50 (human TTK) | IC50 (human PLK4) | GI50 [3] | IC50 (Aurora B) | GI50 (HT29 colon cancer cells)

COC(C(=O)Nc1ccc2[nH]nc(-c3ccc(N4CCC(O)CC4)cc3)c2c1)c1ccsc1 (stereo not shown) [Example A87, N-(3-(4-(4-hydroxypiperidin-1-yl)phenyl)-1H-indazol-5-yl)-2-methoxy-2-(thiophen-3-yl)acetamide]
≤ 5 µM: GI50 [1] | GI50 [2] | IC50 (human TTK) | IC50 (human PLK4) | GI50 [3] | GI50 (HT29 colon cancer cells)

O=C(Nc1ccc2[nH]nc(-c3ccc(N4CCC(O)CC4)cc3)c2c1)C(c1cccs1)N1CCCC1 (stereo not shown) [Example A88, N-(3-(4-(4-hydroxypiperidin-1-yl)phenyl)-1H-indazol-5-yl)-2-(pyrrolidin-1-yl)-2-(thiophen-2-yl)acetamide]
≤ 5 µM: GI50 [1] | GI50 [2] | IC50 (human TTK) | IC50 (human PLK4) | GI50 [3] | IC50 (Aurora B) | GI50 (HT29 colon cancer cells)

O=C(Nc1ccc2[nH]nc(-c3ccc(N4CCC(CO)CC4)cc3)c2c1)C(c1ccsc1)N1CCCC1 (stereo not shown) [Example A95, N-(3-(4-(4-(hydroxymethyl)piperidin-1-yl)phenyl)-1H-indazol-5-yl)-2-(pyrrolidin-1-yl)-2-(thiophen-3-yl)acetamide]
≤ 5 µM: GI50 [1] | GI50 [2] | IC50 (human TTK) | IC50 (human PLK4) | GI50 [3] | IC50 (Aurora B) | GI50 (HT29 colon cancer cells)

C[C@@H]1CCCN1[C@@H](C(=O)Nc1ccc2[nH]nc(-c3ccc(N4CCOCC4)cc3)c2c1)c1ccsc1 [Example A97, (R)-2-((R)-2-methylpyrrolidin-1-yl)-N-(3-(4-morpholinophenyl)-1H-indazol-5-yl)-2-(thiophen-3-yl)acetamide]
≤ 5 µM: GI50 [1] | GI50 [2] | IC50 (human TTK) | IC50 (human PLK4) | GI50 [3] | IC50 (Aurora B) | GI50 (HT29 colon cancer cells)

O=C(NC(c1ccccc1)C1CC1)c1ccc2[nH]nc(-c3ccc(OC4CCN(CCF)CC4)cc3)c2c1 (stereo not shown) [Example A122, N-(cyclopropyl(phenyl)methyl)-3-(4-((1-(2-fluoroethyl)piperidin-4-yl)oxy)phenyl)-1H-indazole-5-carboxamide]
≤ 5 µM: GI50 [1] | GI50 [2] | IC50 (human TTK) | IC50 (human PLK4) | GI50 [3] | GI50 (HT29 colon cancer cells)

O=C(N[C@H](c1ccccn1)C1CC1)c1ccc2[nH]nc(-c3ccc(OC4CCN(C5COC5)CC4)cc3)c2c1 [Example A197, (S)—N-(cyclopropyl(pyridin-2-yl)methyl)-3-(4-((1-(oxetan-3-yl)piperidin-4-yl)oxy)phenyl)-1H-indazole-5-carboxamide]
≤ 5 µM: GI50 [1] | GI50 [2] | IC50 (human TTK) | IC50 (human PLK4) | GI50 [3] | IC50 (Aurora B)

O=C(Nc1ccc2[nH]nc(-c3ccc(N4CCC(O)CC4)cc3)c2c1)C(c1ccsc1)N1CCC1 (stereo not shown) [Example A200, 2-(azetidin-1-yl)-N-(3-(4-(4-hydroxypiperidin-1-yl)phenyl)-1H-indazol-5-yl)-2-(thiophen-3-yl)acetamide]
≤ 5 µM: GI50 [1] | GI50 [2] | IC50 (human TTK) | IC50 (human PLK4) | GI50 [3] | IC50 (Aurora B)

CC(C)(O)C1CCN(c2ccc(-c3n[nH]c4ccc(NC(=O)C(c5ccsc5)N5CCC5)cc34)cc2)CC1 (stereo not shown) [Example A201, 2-(azetidin-1-yl)-N-(3-(4-(4-(2-hydroxypropan-2-yl)piperidin-1-yl)phenyl)-1H-indazol-5-yl)-2-(thiophen-3-yl)acetamide]
≤ 5 µM: GI50 [1] | GI50 [2] | IC50 (human TTK) | IC50 (human PLK4) | GI50 [3] | IC50 (Aurora B)

O=CN1CCC(Oc2ccc(-c3n[nH]c4ccc(C(=O)N[C@@H](c5ccccn5)C5CC5)cc34)cc2)CC1 [Example A203, (R)—N-(cyclopropyl(pyridin-2-yl)methyl)-3-(4-((1-formylpiperidin-4-yl)oxy)phenyl)-1H-indazole-5-carboxamide]
≤ 5 µM: GI50 [1] | GI50 [2] | IC50 (human TTK) | IC50 (human PLK4) | GI50 [3] | IC50 (Aurora B)

O=CN1CCC(Oc2ccc(-c3n[nH]c4ccc(C(=O)N[C@H](c5ccccn5)C5CC5)cc34)cc2)CC1 [Example A204, (S)—N-(cyclopropyl(pyridin-2-yl)methyl)-3-(4-((1-formylpiperidin-4-yl)oxy)phenyl)-1H-indazole-5-carboxamide]
≤ 5 µM: GI50 [1] | GI50 [2] | IC50 (human TTK) | IC50 (human PLK4) | GI50 [3] | IC50 (Aurora B)

COc1cc(-c2n[nH]c3ccc(C(=O)NC(c4ccccc4)C4CC4)cc23)ccc1OC1CCN(C=O)CC1 (stereo not shown) [Example A205, N-(cyclopropyl(phenyl)methyl)-3-(4-((1-formylpiperidin-4-yl)oxy)-3-methoxyphenyl)-1H-indazole-5-carboxamide]
≤ 5 µM: GI50 [1] | GI50 [2] | IC50 (human TTK) | IC50 (human PLK4) | GI50 [3] | IC50 (Aurora B)
